Experimental data reported in US9695155B2, “Herbicidal substituted pyrimidinyloxy benzene compounds” (E. I. DU PONT DE NEMOURS AND COMPANY, priority 2013, dated 2017).

Legend:
kochia [1] = assay: Test A postemergence; format: in vivo, Kochia scoparia; details: for Kochia plant response rating: 125 g ai/ha
Procedure, shortened: (§1)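 Visual 0–100 rating (100 = complete control) taken about 10 d post-treatment relative to untreated checks. Preemergence: directed soil spray on sown loam/sand pots. Postemergence: seedlings 2–10 cm, 1–2 leaf. Non-phytotoxic solvent formulation with surfactant.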

Brazilian crabgrass = assay: Test E preemergence; format: in vivo, Digitaria horizontalis; details: for Crabgrass, Brazil plant response rating: scale 0 to 100 (0 no effect, 100 complete control); for Plant response rating, Crabgrass, Brazil: 125 g ai/ha, scale 0 to 100, 0 no effect, 100 complete control
Procedure, shortened: (§2)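 Test chemicals formulated in a non-phytotoxic solvent mixture containing a surfactant were applied preemergence to seeds in silt loam soil or postemergence to plants at the 1- to 4-leaf stage in potting mix. After 14 to 21 days in a greenhouse, injury was visually rated against controls on a 0-100 scale (0 = no effect, 100 = complete control).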

goosegrass = assay: Test E preemergence; format: in vivo, Eleusine indica; details: for Goosegrass plant response rating: scale 0 to 100 (0 no effect, 100 complete control); for Plant response rating, Goosegrass: 125 g ai/ha, scale 0 to 100, 0 no effect, 100 complete control
Procedure, shortened: as §2

waterhemp = assay: Test E preemergence; format: in vivo, Amaranthus rudis; details: for Waterhemp plant response rating: scale 0 to 100 (0 no effect, 100 complete control); for Plant response rating, Waterhemp: 125 g ai/ha, scale 0 to 100, 0 no effect, 100 complete control
Procedure, shortened: as §2

corn = assay: Test E preemergence; format: in vivo, Zea mays; details: for Corn plant response rating: scale 0 to 100 (0 no effect, 100 complete control); for Plant response rating, Corn: 125 g ai/ha, scale 0 to 100, 0 no effect, 100 complete control
Procedure, shortened: as §2

lambsquarters = assay: Test E preemergence; format: in vivo, Chenopodium album; details: for Lambsquarters plant response rating: scale 0 to 100 (0 no effect, 100 complete control); for Plant response rating, Lambsquarters: 125 g ai/ha, scale 0 to 100, 0 no effect, 100 complete control
Procedure, shortened: as §2

galium = assay: Test A postemergence; format: in vivo, Galium aparine; details: for Galium plant response rating: 125 g ai/ha
Procedure, shortened: as §1

kochia [2] = assay: Test A preemergence; format: in vivo, Kochia scoparia; details: 0 to 100 scale where 0 is no effect and 100 is complete control
Procedure, shortened: as §1

ragweed = assay: Test A preemergence; format: in vivo, Ambrosia elatior; details: 0 to 100 scale where 0 is no effect and 100 is complete control
Procedure, shortened: as §1

wild poinsettia = assay: Test E preemergence; format: in vivo, Euphorbia heterophylla; details: for Poinsettia, Wild plant response rating: scale 0 to 100 (0 no effect, 100 complete control); for Plant response rating, Poinsettia, Wild: 125 g ai/ha, scale 0 to 100, 0 no effect, 100 complete control
Procedure, shortened: as §2

field bindweed = assay: Test E preemergence; format: in vivo, Convolvulus arvensis; details: for Field Bindweed plant response rating: scale 0 to 100 (0 no effect, 100 complete control); for Plant response rating, Field Bindweed: 125 g ai/ha, scale 0 to 100, 0 no effect, 100 complete control
Procedure, shortened: as §2

Italian ryegrass = assay: Test A preemergence; format: in vivo, Lolium multiflorum; details: 0 to 100 scale where 0 is no effect and 100 is complete control
Procedure, shortened: as §1

barnyardgrass = assay: Test E preemergence; format: in vivo, Echinochloa crus-galli; details: preemergence; for Barnyardgrass plant response rating: scale 0 to 100 (0 no effect, 100 complete control); for Plant response rating, Barnyardgrass: 125 g ai/ha, scale 0 to 100, 0 no effect, 100 complete control
Procedure, shortened: as §2

[3] = 0 to 100 scale where 0 is no effect and 100 is complete control
[4] = 500 g ai/ha, 0 to 100 scale where 0 is no effect and 100 is complete control
[5] = 31 g ai/ha, 0 to 100 scale, 0 no effect, 100 complete control
[6] = 31 g ai/ha, visual, approximately 10 days

In the case of `FC(F)(F)COc1cnn(-c2ccccc2Oc2ncc(Cl)cn2)c1` [Compound 138, 5-chloro-2-[2-[4-(2,2,2-trifluoroethoxy)-1H-pyrazol-1-yl]phenoxy]pyrimidine], the “Kochia plant response rating” value (kochia [1]; [3]) is reported as 90, the “Plant response rating, Kochia” value (kochia [1]; [4]) is reported as 100 and the “Crabgrass, Brazil plant response rating” value (Brazilian crabgrass; 16 g ai/ha) is reported as 0. For the same compound, the “Crabgrass, Brazil plant response rating” value (Brazilian crabgrass; 31 g ai/ha) was 40, the “Crabgrass, Brazil plant response rating” value (Brazilian crabgrass; 62 g ai/ha) was 90 and the “Plant response rating, Crabgrass, Brazil” value (Brazilian crabgrass) was 98. The “Goosegrass plant response rating” value (goosegrass; 16 g ai/ha) was 10, the “Goosegrass plant response rating” value (goosegrass; 31 g ai/ha) was 30 and the “Goosegrass plant response rating” value (goosegrass; 62 g ai/ha) was 50. For the same compound, the “Plant response rating, Goosegrass” value (goosegrass) was 70, the “Waterhemp plant response rating” value (waterhemp; 16 g ai/ha) was 0 and the “Waterhemp plant response rating” value (waterhemp; 31 g ai/ha) was 100. The “Waterhemp plant response rating” value (waterhemp; 62 g ai/ha) was 90, the “Plant response rating, Waterhemp” value (waterhemp) was 100 and the “Corn plant response rating” value (corn; 16 g ai/ha) was 0. The “Corn plant response rating” value (corn; 31 g ai/ha) was 0, the “Corn plant response rating” value (corn; 62 g ai/ha) was 15 and the “Plant response rating, Corn” value (corn) was 35. The “Lambsquarters plant response rating” value (lambsquarters; 16 g ai/ha) was 0, the “Lambsquarters plant response rating” value (lambsquarters; 31 g ai/ha) was 50 and the “Lambsquarters plant response rating” value (lambsquarters; 62 g ai/ha) was 100. For the same compound, the “Plant response rating, Lambsquarters” value (lambsquarters) was 100, the “Galium plant response rating” value (galium; [3]) was 90 and the “Plant response rating, Galium” value (galium; [4]) was 100. For the same compound, the “Plant response rating, Kochia” value (kochia [2]; 125 g ai/ha) was 90, the “Kochia plant response rating” value (kochia [2]; 500 g ai/ha) was 100 and the “Plant response rating, Ragweed” value (ragweed; 125 g ai/ha) was 30. The “Ragweed plant response rating” value (ragweed; 500 g ai/ha) was 60, the “Poinsettia, Wild plant response rating” value (wild poinsettia; 16 g ai/ha) was 0 and the “Poinsettia, Wild plant response rating” value (wild poinsettia; 31 g ai/ha) was 25. The “Poinsettia, Wild plant response rating” value (wild poinsettia; 62 g ai/ha) was 35, the “Plant response rating, Poinsettia, Wild” value (wild poinsettia) was 25 and the “Field Bindweed plant response rating” value (field bindweed; 16 g ai/ha) was 0. The “Field Bindweed plant response rating” value (field bindweed; 31 g ai/ha) was 20, the “Field Bindweed plant response rating” value (field bindweed; 62 g ai/ha) was 40 and the “Plant response rating, Field Bindweed” value (field bindweed) was 50. For the same compound, the “Plant response rating, Ryegrass, Italian” value (Italian ryegrass; 125 g ai/ha) was 0, the “Ryegrass, Italian plant response rating” value (Italian ryegrass; 500 g ai/ha) was 50 and the “Barnyardgrass plant response rating” value (barnyardgrass; 16 g ai/ha) was 0. The “Barnyardgrass plant response rating” value (barnyardgrass; 31 g ai/ha) was 0, the “Barnyardgrass plant response rating” value (barnyardgrass; 62 g ai/ha) was 15 and the “Plant response rating, Barnyardgrass” value (barnyardgrass) was 60.
For `N#Cc1cnn(-c2c(CF)cccc2Oc2ncc(F)cn2)c1` [Compound 151], the “Plant response rating, Kochia” value (kochia [1]; [5]) was 60, the “Kochia plant response rating” value (kochia [1]; [3]) was 90 and the “Crabgrass, Brazil plant response rating” value (Brazilian crabgrass; 16 g ai/ha) was 0. For the same compound, the “Crabgrass, Brazil plant response rating” value (Brazilian crabgrass; 31 g ai/ha) was 35, the “Crabgrass, Brazil plant response rating” value (Brazilian crabgrass; 62 g ai/ha) was 70 and the “Plant response rating, Crabgrass, Brazil” value (Brazilian crabgrass) was 75. The “Goosegrass plant response rating” value (goosegrass; 31 g ai/ha) was 0, the “Goosegrass plant response rating” value (goosegrass; 62 g ai/ha) was 70 and the “Plant response rating, Goosegrass” value (goosegrass) was 85. For the same compound, the “Waterhemp plant response rating” value (waterhemp; 31 g ai/ha) was 75, the “Waterhemp plant response rating” value (waterhemp; 62 g ai/ha) was 98 and the “Plant response rating, Waterhemp” value (waterhemp) was 100. For the same compound, the “Corn plant response rating” value (corn; 16 g ai/ha) was 0, the “Corn plant response rating” value (corn; 31 g ai/ha) was 0 and the “Corn plant response rating” value (corn; 62 g ai/ha) was 0. The “Plant response rating, Corn” value (corn) was 0, the “Lambsquarters plant response rating” value (lambsquarters; 31 g ai/ha) was 100 and the “Lambsquarters plant response rating” value (lambsquarters; 62 g ai/ha) was 100. The “Plant response rating, Lambsquarters” value (lambsquarters) was 100, the “Plant response rating, Galium” value (galium; [5]) was 10 and the “Galium plant response rating” value (galium; [3]) was 40. For the same compound, the “Plant response rating, Kochia” value (kochia [2]; [6]) was 80, the “Plant response rating, Kochia” value (kochia [2]; 125 g ai/ha) was 90 and the “Plant response rating, Ragweed” value (ragweed; [6]) was 20. The “Plant response rating, Ragweed” value (ragweed; 125 g ai/ha) was 80, the “Poinsettia, Wild plant response rating” value (wild poinsettia; 31 g ai/ha) was 60 and the “Poinsettia, Wild plant response rating” value (wild poinsettia; 62 g ai/ha) was 100. For the same compound, the “Plant response rating, Poinsettia, Wild” value (wild poinsettia) was 100, the “Field Bindweed plant response rating” value (field bindweed; 16 g ai/ha) was 0 and the “Field Bindweed plant response rating” value (field bindweed; 31 g ai/ha) was 0. For the same compound, the “Field Bindweed plant response rating” value (field bindweed; 62 g ai/ha) was 20, the “Plant response rating, Field Bindweed” value (field bindweed) was 35 and the “Plant response rating, Ryegrass, Italian” value (Italian ryegrass; [6]) was 0. For the same compound, the “Plant response rating, Ryegrass, Italian” value (Italian ryegrass; 125 g ai/ha) was 0, the “Barnyardgrass plant response rating” value (barnyardgrass; 16 g ai/ha) was 0 and the “Barnyardgrass plant response rating” value (barnyardgrass; 31 g ai/ha) was 20. For the same compound, the “Barnyardgrass plant response rating” value (barnyardgrass; 62 g ai/ha) was 10 and the “Plant response rating, Barnyardgrass” value (barnyardgrass) was 75.
